Assay results: the supplement of paper PMC10307832

Tests used:
Assay in all cases: relative viability (nuclei count vs DMSO), 5 days (fraction); higher = more cells survive
[1] = compound: CN[C@@H]1C[C@H]2O[C@@](C)([C@@H]1OC)n1c3ccccc3c3c4c(c5c6ccccc6n2c5c31)C(=O)NC4 [Staurosporine] + Cc1nc(NC(=O)N2CCC[C@H]2C(N)=O)sc1-c1ccnc(C(C)(C)C(F)(F)F)c1 [Alpelisib] (partner 2 µM)
Summary of the method: (§1)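 The day after seeding in 1536-well plates, lung cancer cell lines were treated by pin tool with a single drug, or with a fixed anchor-drug dose together with five library-drug doses (not always all listed) in √10 steps. After 5 days, a combined fix-and-stain solution (final 0.05% Triton X-100, 1% formaldehyde, 1 ug/ml Hoechst) was added. Nuclei counted on 4× images gave relative viability as treated counts over vehicle counts, reported as the median of duplicate plates.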

[2] = compound: CC1=C(CC(=O)O)c2cc(F)ccc2/C1=C\c1ccc([S+](C)[O-])cc1 [Sulindac] + CC(=O)c1c(C)c2cnc(Nc3ccc(N4CCNCC4)cn3)nc2n(C2CCCC2)c1=O [Palbociclib] (partner 0.5 µM)
Summary of the method: as §1

[3] = compound: O=c1[nH]cc(F)c(=O)[nH]1 [5-Fluorouracil] + CCNC(=O)c1noc(-c2cc(C(C)C)c(O)cc2O)c1-c1ccc(CN2CCOCC2)cc1 [Luminespib] (partner 0.01 µM)
Summary of the method: as §1

[4] = compound: CN[C@@H]1C[C@H]2O[C@@](C)([C@@H]1OC)n1c3ccccc3c3c4c(c5c6ccccc6n2c5c31)C(=O)NC4 [Staurosporine] + CC(=O)Nc1cccc(-n2c(=O)n(C3CC3)c(=O)c3c(Nc4ccc(I)cc4F)n(C)c(=O)c(C)c32)c1 [Trametinib] (partner 0.02 µM)
Summary of the method: as §1

Cell Line	relative viability ([1]; first compound 0.005 µM)	relative viability ([1]; first compound 0.01581 µM)	relative viability ([1]; first compound 0.05 µM)	relative viability ([1]; first compound 0.1581 µM)	relative viability ([1]; first compound 0.5 µM)	relative viability ([2]; first compound 0.08 µM)	relative viability ([2]; first compound 0.253 µM)	relative viability ([2]; first compound 0.8 µM)	relative viability ([2]; first compound 2.53 µM)	relative viability ([2]; first compound 8 µM)	relative viability ([3]; first compound 0.02 µM)	relative viability ([3]; first compound 0.2 µM)	relative viability ([3]; first compound 0.6325 µM)	relative viability ([3]; first compound 2 µM)	relative viability ([4]; first compound 0.005 µM)	relative viability ([4]; first compound 0.01581 µM)	relative viability ([4]; first compound 0.05 µM)	relative viability ([4]; first compound 0.1581 µM)	relative viability ([4]; first compound 0.5 µM)
NCI-H1666	0.582	0.371	0.375	0.177	0.175	0.632	0.606	0.545	0.727	0.624	0.992	0.639	0.419	0.44	0.785	0.573	0.635	0.513	0.456
LOU-NH91	0.718	0.575	0.457	0.304	0.305	0.473	0.535	0.536	0.521	0.571	0.37	0.355	0.332	0.277	0.673	0.493	0.511	0.341	0.303
LXF-289	0.902		0.197	0.0563	0.0673	0.685	0.672	0.556	0.659	0.624	0.701	0.435	0.251	0.238	0.741	0.409	0.412	0.274	0.237
NCI-H1299	1.13	0.874	0.237	0.205	0.196														
HARA	0.532	0.173	0.142	0.0954	0.0999	0.294	0.3	0.3	0.256	0.227	0.964	0.739	0.705	0.509	0.365	0.401	0.2	0.132	0.118
LU99A	0.341	0.153	0.19	0.105	0.118	0.439	0.409	0.389	0.376	0.417	0.245	0.281	0.234		0.461	0.243	0.23	0.182	0.133
201T	1.03	0.973	0.874	0.715	0.59	0.338	0.359	0.386	0.355	0.38	1.03	0.809	0.352	0.301	0.769		0.703	0.58	0.485
HCC-827	1.1	0.852	0.748		0.431	0.496	0.552	0.48	0.547	0.465	0.399	0.691	0.465	0.239	0.625	0.641	0.357	0.313	0.231
NCI-H1703	0.219	0.167	0.142	0.139	0.102														
NCI-H1975	0.238	0.201	0.15	0.108	0.104	0.621	0.638	0.451	0.546	0.619	0.302	0.217	0.397	0.237	0.18	0.141	0.139	0.121	0.1
NCI-H2023	0.56	0.28	0.274	0.15	0.0702	0.387	0.429	0.362	0.415	0.454	0.844	0.154	0.106	0.0768	0.257	0.17	0.145	0.0801	0.0607
ChaGo-K-1						1.09	0.918	0.838	0.924	0.988	0.6	0.513	0.406	0.358	0.911		0.796	0.579	0.455
COR-L 105	0.59	0.388	0.236	0.235	0.197	0.387	0.402	0.365	0.412	0.395	0.638	0.909	0.685	0.439	0.427	0.357	0.274	0.234	0.237
NCI-H2170	0.903	0.611	0.568	0.377	0.281	0.482	0.402	0.413	0.427	0.38	0.507	0.541	0.503	0.3			0.904	0.63	0.379
A549	0.206	0.284	0.0899	0.0462	0.0282														
NCI-H460	0.367	0.198	0.024	0.0141	0.0076	0.199	0.176	0.147	0.239	0.148	0.0365	0.0336	0.0342	0.0284	0.0592	0.0305	0.0206	0.0114	0.0063
NCI-H1993	0.623	0.668	0.578	0.503	0.449	0.666	0.658	0.591	0.727	0.604	0.768	0.682	0.664	0.595	0.45	0.453	0.51	0.36	0.278
Calu-6	0.732	0.612	0.279	0.104	0.0766														
SW 900						0.479	0.584			0.496	0.153	0.161	0.213	0.196	0.494	0.366	0.444	0.128	0.164
NCI-H1623											0.395	0.361	0.412	0.364					
NCI-H322M	0.74	0.723	0.725	0.446	0.328	0.436	0.462	0.489	0.474	0.46	0.841	1	0.724	0.552	0.518	0.418	0.342	0.45	0.432

Cell Line	relative viability ([1]; first compound 0.005 µM)	relative viability ([1]; first compound 0.01581 µM)	relative viability ([1]; first compound 0.05 µM)	relative viability ([1]; first compound 0.1581 µM)	relative viability ([1]; first compound 0.5 µM)	relative viability ([2]; first compound 0.08 µM)	relative viability ([2]; first compound 0.253 µM)	relative viability ([2]; first compound 0.8 µM)	relative viability ([2]; first compound 2.53 µM)	relative viability ([2]; first compound 8 µM)	relative viability ([3]; first compound 0.02 µM)	relative viability ([3]; first compound 0.2 µM)	relative viability ([3]; first compound 0.6325 µM)	relative viability ([3]; first compound 2 µM)	relative viability ([4]; first compound 0.005 µM)	relative viability ([4]; first compound 0.01581 µM)	relative viability ([4]; first compound 0.05 µM)	relative viability ([4]; first compound 0.1581 µM)	relative viability ([4]; first compound 0.5 µM)
NCI-H2405	0.185	0.131	0.101	0.075	0.0622	0.531	0.525	0.5	0.509	0.593	0.707	0.786	0.676	0.693	0.355	0.161	0.148	0.0927	0.0684
HCC-44	0.441	0.167	0.106	0.11	0.0846	0.982	1.06	0.924	0.96	0.966	1.29	1.22	0.853	0.355	1.04		0.444		0.322
HCC-78	0.394	0.305	0.241	0.281	0.237	0.481	0.48	0.501	0.444	0.442					0.806	0.676	0.484	0.407	0.428
COR-L23	0.204	0.226	0.143	0.0629	0.0497	0.325	0.268	0.233	0.275	0.334	0.86	0.691	0.512	0.168	0.325	0.148	0.0689	0.0665	0.0391
NCI-H2009	0.864	0.276	0.267	0.173	0.141	0.176	0.209	0.234	0.17	0.242	1.18	1.12	1.12	0.645	0.204	0.143	0.149	0.087	0.0761
NCI-H3122	1.07	0.302	0.758	0.209	0.217	0.161	0.183	0.218	0.204	0.205	0.104	0.09	0.095	0.088	0.368		0.648		0.221
NCI-H2228	0.658	0.204	0.155	0.148	0.0961	0.876	0.967	0.487	0.864	0.831	0.158	0.156	0.145	0.18	0.332	0.089	0.169	0.0671	0.0687
NCI-H1944	0.953		0.483	0.384	0.341	0.363	0.333	0.338	0.351	0.374	0.73	0.625	0.3	0.185	0.373	0.331	0.356	0.252	0.195
NCI-H1648						0.275	0.268		0.242	0.282					0.586	0.299	0.0693	0.25	0.265
NCI-H358	0.553	0.222	0.19	0.144	0.161	0.135	0.139	0.129	0.139	0.136	0.388	0.307	0.308	0.145	0.157	0.111	0.0885	0.0815	0.0672
NCI-H1755	0.591	0.418	0.183	0.16	0.14	0.479	0.48	0.517	0.495	0.504	0.57	0.346	0.331	0.219	0.663	0.479	0.263	0.212	0.193
ABC-1	0.535	0.255	0.168	0.182	0.0986	0.73	0.946	0.514	0.475	0.639	0.577	0.531	0.533	0.465					
NCI-H1563	0.813	0.57	0.63	0.53	0.489						0.49	0.478	0.499	0.488					
NCI-H596	0.59	0.325	0.284	0.174	0.165						1	0.728	0.726	0.542	0.753	0.494	0.275	0.184	0.173
HCC-366	0.363		0.0965	0.0438	0.0105	0.442	0.36		0.301	0.555					0.242		0.0839	0.0291	0.0289
NCI-H2342						0.466	0.482	0.536	0.481	0.56	0.807	0.731	0.616	0.467	0.948	0.675	0.499	0.417	0.363
NCI-H522						0.972	0.955	0.818	1.17	1.04	1.14	1.19	1.17	0.961	0.667	0.775	0.627	0.623	0.59
EBC-1	0.367	0.307	0.151	0.157	0.145														
LK-2	1.24	1.18	0.451	0.191	0.0868	0.879	0.624	0.496	0.369	0.88					0.906	0.781	0.701	0.669	0.333
NCI-H1650						0.271	0.331	0.341	0.346	0.315	0.213	0.185	0.246	0.211	0.501	0.364	0.187	0.112	0.0438
IA-LM	0.577		0.281	0.211	0.0757														
